Data from patent publication US5110808A, “Amide derivatives, compositions and use” (Imperial Chemical Industries, PLC, priority 1990, dated 1992).

What was measured:
[1] = target: T1, aldose reductase (Bos taurus, UniProt P16116); test: In vitro inhibition of partially purified aldose reductase from bovine lenses, spectrophotometric; type: biochemical
T1 construct: partially purified aldose reductase is isolated in known manner from bovine lenses; from tissue; host or cells: bovine lens
From the text: Thus, in a standard procedure partially purified aldose reductase is isolated in known manner from bovine lenses. The percentage inhibition of this enzyme's ability in vitro to catalyse the reduction of aldoses to polyhydric alcohols, and particularly to reduce glucose to sorbitol, caused by a test compound can then be determined using standard spectrophotometric methods.

[2] = tested on: aldose reductase; test: Reduction of sciatic nerve sorbitol in streptozotocin-diabetic rats (inhibition of aldose reductase in vivo); design: species or system rat; conditions: after 5 daily oral doses of 3 mg/kg
Description: Rats are made diabetic (as evidenced by severe glucosuria being present) by dosing with streptozotocin. The animals are then dosed daily with the test compound for one, two or five days. The animals are then sacrificed 2-6 hours after the final dose and the eye lenses and/or sciatic nerves are removed. After a standard work-up procedure the residual sorbitol levels in each tissue are determined by gas liquid chromatography after conversion to the polytrimethylsilyl derivatives. Inhibition of aldose reductase in vivo can then be assessed by comparing the residual sorbitol levels in tissues from the dosed diabetic group of rats with those of an undosed group of diabetic rats and an undosed, normal group of rats.
In a variation of the above test diabetic rats are dosed at a fixed daily oral dose for five days and then sacrificed 6 hours aftre the final dose and the reduction of sciatic nerve sorbitol assessed relative to that in control animals.

Cc1cc(NC(=O)C(=O)N(C(C)C)C(C)C)cc(C)c1S(=O)(=O)C[N+](=O)[O-] [Example 2, N,N-di-isopropyl-N'-[3,5-dimethyl-4-(nitromethylsulfonyl)phenyl]oxamide]
IC50 [1]: ~60 nM
reduction in sciatic nerve sorbitol levels [2]: 82%
